# US5231100A, “Antineoplastic modified imidazoacridines” (British Technology Group Limited, priority 1991, dated 1993)
# pIC50: −log10 of the molar value. Read-outs that look alike come from different tables or passages of the source.
# What was measured:
# [1] = test system: mouse L1210 leukemia cells; experiment: In vitro cytotoxicity, 48 h growth inhibition (cell protein content); format: cell-based; settings: for pIC50: read-out: in vitro IC50
# Protocol: The mouse L1210 leukemia cells (RPM1, USA) are grown in RPM1 1640 medium supplemented with 5% fetal calf serum and penicillin (1,000,000 units litre) plus streptomycin (100 mg/litre) in controlled air-5% CO2 humidified atmosphere at 37° C. L1210 mouse leukemia cells are seeded at a density of 5.10^4 cells/ml. The tested compounds after being dissolved in 50% ethanol are added, at four different concentrations, to the cell suspensions. […] 1974, 24, 1971.
# P388 lymphotic leukemia = experiment: In vivo antileukemic evaluation, P388 leukemia in BDF1 mice
# Protocol: BDF1 mice are injected ip with 10^6 P388 lymphotic leukemia cells on day O and treated ip on days 1-5 in accordance with the protocols described by the National Cancer Institute: Geran, R. I.; Greenberg, R. H.; MacDonald, M. M.; Schumacher, A. M.; Abbot, B. J. Cancer Chemother, Re., Part 3, 1972,3,1. The mean survival time (MST) for each treatment group (eight mice) is calculated and the percent of T/C was determined by using the following formula: % T/C=(MST treated)/(MST control) 100.
# [2] = L1210 cells, 48 h, 50% growth inhibition
# [3] = L1210 cells, 48 h, 50% growth inhibition, read-out: in vitro IC50 (μg/ml)
# [4] = P388 ip, treated ip days 1-5, at opt dose, first or only value
# [5] = P388 ip, treated ip days 1-5, at opt dose, repeated independent multidose assay (footnote c)
smiles,measurement,setting,value
"CCN(CC)CCNc1ccc2ncn3c4ccc(OC)cc4c(=O)c1c23.Cl.Cl [Example 1, 5-[[2-(Diethylamino)ethyl]amino]-8-methoxyimidazo[4,5,1-de] acridin-6-one Dihydrochloride]",pIC50,[1]; [2],5.74
same,IC50,[1]; [3],0.78 µg/mL
same,% T/C (mean survival time treated/control),P388 lymphotic leukemia; [4],183%
same,"% T/C (mean survival time treated/control), second value",P388 lymphotic leukemia; [5],209%
COc1ccc2c(c1)c(=O)c1c(NCCN(C)C)ccc3ncn2c31 [Example 2],IC50,"[1]; L1210, 48 h, read-out: in vitro IC50 (μM)",1.6 µM
same,IC50,"[1]; L1210, 48 h, read-out: in vitro IC50 (μg/ml)",0.65 µg/mL
same,% T/C (mean survival time treated/control),P388 lymphotic leukemia; [4],177%
same,"% T/C (mean survival time treated/control), second value",P388 lymphotic leukemia; [5],136%
COc1ccc2c(c1)c(=O)c1c(NCCN(C)C)ccc3nc(C)n2c31 [Example 3],pIC50,[1]; [2],6.11
same,IC50,[1]; [3],0.34 µg/mL
same,% T/C (mean survival time treated/control),P388 lymphotic leukemia; [4],127%
CCN(CC)CCNc1ccc2nc(C)n3c4ccc(OC)cc4c(=O)c1c23 [Example 4],pIC50,[1]; [2],5.81
same,IC50,[1]; [3],0.7 µg/mL
same,% T/C (mean survival time treated/control),P388 lymphotic leukemia; [4],136%
same,"% T/C (mean survival time treated/control), second value",P388 lymphotic leukemia; [5],120%
COc1ccc2c(c1)c(=O)c1c(NCCCN(C)C)ccc3ncn2c31 [Example 5],pIC50,[1]; [2],5.08
same,IC50,[1]; [3],3.5 µg/mL
same,% T/C (mean survival time treated/control),P388 lymphotic leukemia; [4],164%
COc1ccc2c(c1)c(=O)c1c(NCCCN(C)C)ccc3nc(C)n2c31 [Example 6],pIC50,[1]; [2],5.49
same,IC50,[1]; [3],1.4 µg/mL
same,% T/C (mean survival time treated/control),P388 lymphotic leukemia; [4],136%
CCN(CC)CCCNc1ccc2ncn3c4ccc(OC)cc4c(=O)c1c23 [Example 7],pIC50,[1]; [2],5.60
same,IC50,[1]; [3],1.1 µg/mL
same,% T/C (mean survival time treated/control),P388 lymphotic leukemia; [4],142%
CCN(CC)CCCNc1ccc2nc(C)n3c4ccc(OC)cc4c(=O)c1c23 [Example 8],pIC50,[1]; [2],5.85
same,IC50,[1]; [3],0.7 µg/mL
same,% T/C (mean survival time treated/control),P388 lymphotic leukemia; [4],108%
CN(C)CCNc1ccc2ncn3c4ccc(O)cc4c(=O)c1c23 [Example 9],pIC50,[1]; [2],7.32
same,IC50,[1]; [3],0.02 µg/mL
same,% T/C (mean survival time treated/control),P388 lymphotic leukemia; [4],210%
same,"% T/C (mean survival time treated/control), second value",P388 lymphotic leukemia; [5],210%
Cc1nc2ccc(NCCN(C)C)c3c(=O)c4cc(O)ccc4n1c23 [Example 10],pIC50,[1]; [2],6.87
same,IC50,[1]; [3],0.06 µg/mL
same,% T/C (mean survival time treated/control),P388 lymphotic leukemia; [4],200%
same,"% T/C (mean survival time treated/control), second value",P388 lymphotic leukemia; [5],250%
CCN(CC)CCNc1ccc2ncn3c4ccc(O)cc4c(=O)c1c23 [Example 11],pIC50,[1]; [2],7.51
same,IC50,[1]; [3],0.013 µg/mL
same,% T/C (mean survival time treated/control),P388 lymphotic leukemia; ip,211%
same,"% T/C (mean survival time treated/control), second value",P388 lymphotic leukemia; ip,175%
CCN(CC)CCNc1ccc2nc(C)n3c4ccc(O)cc4c(=O)c1c23 [Example 12],pIC50,[1]; [2],6.60
same,IC50,[1]; [3],0.11 µg/mL
same,% T/C (mean survival time treated/control),P388 lymphotic leukemia; [4],280%
same,"% T/C (mean survival time treated/control), second value",P388 lymphotic leukemia; [5],290%
CN(C)CCCNc1ccc2ncn3c4ccc(O)cc4c(=O)c1c23 [Example 13],pIC50,[1]; [2],7.47
same,IC50,[1]; [3],0.014 µg/mL
same,% T/C (mean survival time treated/control),P388 lymphotic leukemia; [4],183%
Cc1nc2ccc(NCCCN(C)C)c3c(=O)c4cc(O)ccc4n1c23 [Example 14],pIC50,[1]; [2],6.64
same,IC50,[1]; [3],0.1 µg/mL
same,% T/C (mean survival time treated/control),P388 lymphotic leukemia; [4],255%
CCN(CC)CCCNc1ccc2ncn3c4ccc(O)cc4c(=O)c1c23 [Example 15],pIC50,[1]; [2],6.74
same,IC50,[1]; [3],0.08 µg/mL
same,% T/C (mean survival time treated/control),P388 lymphotic leukemia; [4],309%
same,"% T/C (mean survival time treated/control), second value",P388 lymphotic leukemia; [5],230%
CCN(CC)CCCNc1ccc2nc(C)n3c4ccc(O)cc4c(=O)c1c23 [Example 16],pIC50,[1]; [2],6.05
same,IC50,[1]; [3],0.4 µg/mL
same,% T/C (mean survival time treated/control),P388 lymphotic leukemia; [4],150%
same,"% T/C (mean survival time treated/control), second value",P388 lymphotic leukemia; [5],155%
